Laboratory results taken from patent US12319679B2, “Morpholinyl, piperazinyl, oxazepanyl and diazepanyl O-glycoprotein-2-acetamido-2-deoxy-3-d-glucopyranosidase inhibitors” (BIOGEN MA INC., priority 2018, dated 2025).

Biological target: T1, Recombinant full length human OGA enzyme (Homo sapiens, UniProt O60502)
T1 construct: Recombinant full length human OGA enzyme was purchased from Origene; purchased Origene
T1 sequence (O60502 1-916): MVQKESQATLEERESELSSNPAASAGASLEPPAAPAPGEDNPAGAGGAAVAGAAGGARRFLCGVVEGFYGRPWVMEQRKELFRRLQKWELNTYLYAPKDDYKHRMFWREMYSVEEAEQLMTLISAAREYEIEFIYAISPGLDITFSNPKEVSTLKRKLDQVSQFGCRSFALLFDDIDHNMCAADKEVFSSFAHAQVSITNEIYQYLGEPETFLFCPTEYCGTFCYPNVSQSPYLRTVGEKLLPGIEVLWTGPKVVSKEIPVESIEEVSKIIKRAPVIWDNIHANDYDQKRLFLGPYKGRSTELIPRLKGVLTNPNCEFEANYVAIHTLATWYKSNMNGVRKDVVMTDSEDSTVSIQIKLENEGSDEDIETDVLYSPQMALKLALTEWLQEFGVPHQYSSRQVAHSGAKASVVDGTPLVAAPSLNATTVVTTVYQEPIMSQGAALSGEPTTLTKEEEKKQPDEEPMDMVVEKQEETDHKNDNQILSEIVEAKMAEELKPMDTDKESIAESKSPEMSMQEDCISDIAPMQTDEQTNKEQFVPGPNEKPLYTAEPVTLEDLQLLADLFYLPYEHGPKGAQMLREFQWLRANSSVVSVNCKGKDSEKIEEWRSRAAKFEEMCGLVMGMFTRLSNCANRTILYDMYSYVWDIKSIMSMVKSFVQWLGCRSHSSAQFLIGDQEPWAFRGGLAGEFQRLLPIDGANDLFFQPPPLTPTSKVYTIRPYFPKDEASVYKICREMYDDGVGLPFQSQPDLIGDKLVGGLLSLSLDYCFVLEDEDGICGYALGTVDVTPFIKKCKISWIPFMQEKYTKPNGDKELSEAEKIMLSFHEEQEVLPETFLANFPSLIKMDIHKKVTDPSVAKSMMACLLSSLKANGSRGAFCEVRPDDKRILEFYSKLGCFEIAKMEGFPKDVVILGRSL
Test: OGA Enzyme Inhibition Biochemical Assay
Details: 1 nM OGA, 100 μM 4-MUGlcNAc (Km), pH 6.4, 90 minutes at room temperature; 10-point dose-response starting from 20 μM
Procedure: OGA Enzyme Inhibition Biochemical Assay
Recombinant full length human OGA enzyme was purchased from Origene. 4-MUGlCNAc substrate was purchased from Sigma. All other reagents were purchased from Sigma or Fisher. Assay buffer consists of the McIlvaine buffer system, pH 6.4 (0.2M Na2HPO4 mixed with 0.1M citric acid) and 0.01% BSA. Reactions consist of 1 nM OGA, 100 μM 4-MUGlcNAc (Km), and compound in a final volume of 10 μl. Reactions were incubated for 90 minutes at room temperature and quenched with 40 μl of 3M glycine, pH 10 and read on a Perkin Elmer Envision plate reader (Ex: 355 nm/Em: 460 nm). Compounds were tested with a 10-point dose-response starting from 20 μM with a 4-fold dilution. Data was fit using GraphPad Prism using a 4-paramter fit with variable slope.

| Compound | IC50 |
| --- | --- |
| CC(=O)Nc1ncc(CN2C[C@@H](Cc3ccc(C)nc3)NC[C@@H]2C)s1 [Example 2-9, N-(5-(((2S,5R)-2-methyl-5-((6-methylpyridin-3-yl)methyl)piperazin-1-yl)methyl)thiazol-2-yl)acetamide] | 45 nM |
| COc1cc(CC2CN(Cc3cnc(NC(C)=O)s3)CCN2C)ccn1 (single isomer, unassigned) [Example 4-12 Peak 1] | 950 nM |
| CC(=O)Nc1ncc(CN2C[C@@H](Cc3cc(C)nc(C)n3)N(C)C[C@@H]2C)s1 [Example 2-17] | 41 nM |
| COc1cc(CC2CN(Cc3cnc(NC(C)=O)s3)CCN2)ccn1 (single isomer, unassigned) [Example 2-22 Peak 2] | 850 nM |
| CC(=O)Nc1ncc(CN2C[C@@H](Cc3ccnc(C)c3)NC[C@@H]2C)s1 [Example 2-1, N-(5-(((2S,5R)-2-methyl-5-((2-methylpyridin-4-yl)methyl)piperazin-1-yl)methyl)thiazol-2-yl)acetamide] | 7.4 nM |
| CC(=O)Nc1ncc(CN2CCCN(C(C)=O)C(Cc3cc(C)nc(C)c3)C2)s1 (stereo not drawn) [Example 2-29, N-(5-((4-acetyl-3-((2,6-dimethylpyridin-4-yl)methyl)-1,4-diazepan-1-yl)methyl)thiazol-2-yl)acetamide] | > 20000 nM |
| COc1cc(C[C@@H]2CN(Cc3cnc(NC(C)=O)s3)[C@@H](C)CO2)ccn1 [Example 1-30, N-(5-(((2R,5S)-2-((2-methoxypyridin-4-yl)methyl)-5-methylmorpholino)methyl)thiazol-2-yl)acetamide] | 17000 nM |
| CC(=O)Nc1ncc(CN2CCOCC(Cc3cc(C)nc(C)c3)C2)s1 (single isomer, unassigned) [Example 1-43 Peak 1] | 19 nM |
| CC(=O)Nc1ncc(CN2C[C@@H](Cc3cc(C)nc(C)n3)NC[C@@H]2C)s1 [Example 2-13] | 22 nM |
| CC(=O)Nc1ncc(CN2C[C@@H](Cc3cc(C)nc(C)c3)NC[C@@H]2C)s1 [Example 2-8, N-(5-(((2S,5R)-5-((2,6-dimethylpyridin-4-yl)methyl)-2-methylpiperazin-1-yl)methyl)thiazol-2-yl)acetamide] | 9.1 nM |
| CC(=O)Nc1ncc(CN2CCN(C)[C@H](Cc3ccc(C)nc3)C2)s1 [Example 4-15, (R)—N-(5-((4-methyl-3-((6-methylpyridin-3-yl)methyl)piperazin-1-yl)methyl)thiazol-2-yl)acetamide] | > 20000 nM |
| CCN1C[C@H](C)N(Cc2cnc(NC(C)=O)s2)C[C@H]1Cc1ccc(C)nc1 [Example 2-12, N-(5-(((2S,5R)-4-ethyl-2-methyl-5-((6-methylpyridin-3-yl)methyl)piperazin-1-yl)methyl)thiazol-2-yl)acetamide] | 180 nM |
| COc1cc(C[C@@H]2CN(Cc3cnc(NC(C)=O)s3)[C@@H](C)CN2)ccn1 [Example 2-14, N-(5-(((2S,5R)-5-((2-methoxypyridin-4-yl)methyl)-2-methylpiperazin-1-yl)methyl)thiazol-2-yl)acetamide] | 7.5 nM |
| CC(=O)Nc1ncc(CN2C[C@@H](Cc3ccc(C)nc3)OC[C@@H]2C)s1 [Example 1-33, N-(5-(((2R,5S)-5-methyl-2-((6-methylpyridin-3-yl)methyl)morpholino)methyl)thiazol-2-yl)acetamide] | 31 nM |
| CC(=O)Nc1ncc(CN2CCN(C)[C@@H](Cc3ccc(C)nc3)C2)s1 [Example 4-16, (S)—N-(5-((4-methyl-3-((6-methylpyridin-3-yl)methyl)piperazin-1-yl)methyl)thiazol-2-yl)acetamide] | 2000 nM |

Now from value to compound:

| IC50 | Compound |
| --- | --- |
| 56 nM | COc1nccc(C[C@@H]2CN(Cc3cnc(NC(C)=O)s3)CCO2)c1F [Example 1-15, (R)—N-(5-((2-((3-fluoro-2-methoxypyridin-4-yl)methyl)morpholino)methyl)thiazol-2-yl)acetamide] |
| 84 nM | CC(=O)Nc1ncc(CN2CCO[C@H](Cc3ccnc(C)c3)C2)s1 [Example 1-20, (R)—N-(5-((2-((2-methylpyridin-4-yl)methyl)morpholino)methyl)thiazol-2-yl)acetamide] |
| > 20000 nM | CC(=O)Nc1ncc(CN2CCNC(Cc3ncc(F)cn3)C2)s1 (single isomer, unassigned) [Example 2-20 Peak 2] |
| 9900 nM | CC(=O)Nc1ncc(CN2CCCNC(Cc3ccnc(C)c3)C2)s1 (stereo not drawn) [Example 2-27, N-(5-((3-((2-methylpyridin-4-yl)methyl)-1,4-diazepan-1-yl)methyl)thiazol-2-yl)acetamide] |
| 57 nM | CC(=O)Nc1ncc(CN2CCCOC(Cc3cc(C)nc(C)c3)C2)s1 (racemic) [Example 1-36, N-(5-((2-((2,6-dimethylpyridin-4-yl)methyl)-1,4-oxazepan-4-yl)methyl)thiazol-2-yl)acetamide] |
| 5.3 nM | CC(=O)Nc1ncc(CN2CCOC(C(C)c3ncc(F)cn3)C2)s1 (single isomer, unassigned) [Example 1-25 Peak 1] |
| 61 nM | COc1nccc(C[C@@H]2CN(Cc3cnc(NC(C)=O)s3)CCO2)c1C [Example 1-5, (R)—N-(5-((2-((2-methoxy-3-methylpyridin-4-yl)methyl)morpholino)methyl)thiazol-2-yl)acetamide] |
| 1300 nM | CC(=O)Nc1ncc(CN2CCOC(C(C)c3ncc(F)cn3)C2)s1 (single isomer, unassigned) [Example 1-25 Peak 4] |
| 130 nM | COc1cc(C[C@@H]2CN(Cc3cnc(NC(C)=O)s3)CCO2)ncn1 [Example 1-8, (R)—N-(5-((2-((6-methoxypyrimidin-4-yl)methyl)morpholino)methyl)thiazol-2-yl)acetamide] |
| 4400 nM | CC(=O)Nc1ncc(CN2CCNC(Cc3ccc(C)nc3)C2)s1 (single isomer, unassigned) [Example 4-14 Peak 2] |
| 160 nM | CC(=O)Nc1ncc(CN2CCO[C@H](Cc3ccc(C)cn3)C2)s1 [Example 1-16, (R)—N-(5-((2-((5-methylpyridin-2-yl)methyl)morpholino)methyl)thiazol-2-yl)acetamide] |
| 99 nM | COc1cc(CC2CN(Cc3cnc(NC(C)=O)s3)CCCO2)ccn1 (racemic) [Example 1-40, N-(5-((2-((2-methoxypyridin-4-yl)methyl)-1,4-oxazepan-4-yl)methyl)thiazol-2-yl)acetamide] |
| 110 nM | COc1nccc(C[C@@H]2CN(Cc3cnc(NC(C)=O)s3)CCO2)n1 [Example 1-7, (R)—N-(5-((2-((2-methoxypyrimidin-4-yl)methyl)morpholino)methyl)thiazol-2-yl)acetamide] |
| 130 nM | CCOc1cc(C[C@@H]2CN(Cc3cnc(NC(C)=O)s3)CCO2)ccn1 [Example 1-11, (R)—N-(5-((2-((2-ethoxypyridin-4-yl)methyl)morpholino)methyl)thiazol-2-yl)acetamide] |
| 180 nM | CC(=O)Nc1ncc(CN2CCO[C@H](Cc3ccnc(C)n3)C2)s1 [Example 1-14, (R)—N-(5-((2-((2-methylpyrimidin-4-yl)methyl)morpholino)methyl)thiazol-2-yl)acetamide] |
| 1500 nM | CC(=O)Nc1ncc(CN2CCO[C@H](Cc3ccnc(C(F)(F)F)n3)C2)s1 [Example 1-9] |
| 20 nM | CC(=O)Nc1ncc(CN2CCCOC(Cc3ncc(F)cn3)C2)s1 (single isomer, unassigned) [Example 1-39 Peak 1] |
| 9600 nM | CC(=O)Nc1ncc(CN2C[C@@H](Cc3ncc(F)cn3)N(C(C)=O)C[C@@H]2C)s1 [Example 2-7, N-(5-(((2S,5R)-4-acetyl-5-((5-fluoropyrimidin-2-yl)methyl)-2-methylpiperazin-1-yl)methyl)thiazol-2-yl)acetamide] |
| 760 nM | CC(=O)Nc1ncc(CN2CCCOC(Cc3ncc(F)cn3)C2)s1 (single isomer, unassigned) [Example 1-39 Peak 2] |
| 38 nM | CC(=O)Nc1ncc(CN2CCO[C@H](Cc3cc(C)nc(C)c3)C2)s1 [Example 1-21, (R)—N-(5-((2-((2,6-dimethylpyridin-4-yl)methyl)morpholino)methyl)thiazol-2-yl)acetamide] |
| 100 nM | COc1cc(C[C@@H]2CN(Cc3cnc(NC(C)=O)s3)CCO2)ccc1F [Example 1-6, (R)—N-(5-((2-(4-fluoro-3-methoxybenzyl)morpholino)methyl)thiazol-2-yl)acetamide] |
